# Measurements reported in patent US10568854B2, “Compositions and methods for treating kabuki syndrome and related disorders” (THE JOHNS HOPKINS UNIVERSITY, priority 2014, dated 2020).
# Entries after “also recorded” stand apart in the source; their conditions may differ.
# Legend:
# [1] = BHB in urine, colorimetric assay; type: in vivo, mouse
# Description: (§1) BHB injection and BHB assay: For injections into mice, (R)-(−)-3-hydroxybutyric acid sodium salt (Santa Cruz Biotechnology, Dallas, Tex.) was used at an experimental dose of (10 mM/kg). To detect BHB in the urine (from either injections or ketogenic diet), the β-Hydroxybutyrate (Ketone Body) Colorimetric Assay Kit (Cayman Chemical Company, Ann Arbor, Mich.) was used. Urine from injections was drawn approximately 2 hours after injection and urine from mice on the ketogenic diet was taken in the early afternoon (unless otherwise stated in the text).
# [2] = tested on: H4ac indicator in HEK 293 cells; assay: H4ac indicator experiment with BHB, FACS; type: cell-based; conditions: 24 hours before FACS; sodium salt
# Description: (§2) Indicator experiments: HEK 293 cells were transfected with lipofectamine LTX (Invitrogen, Carlsbad, Calif.) with either the H3K4me3 indicator or the H4ac indicator, synthesized by OriGene Technologies (Rockville, Md.). Stable transfections were maintained through positive selection with blastacidin […] (Life Technologies, Grand Island, N.Y.). For BHB treatment, (R)-(−)-3-Hydroxybutyric acid sodium salt (Santa Cruz Biotechnology) was added to the medium 24 hours before FACS analysis (FACSVerse, BD Biosciences, Franklin Lakes, N.J.). Data was analyzed using FlowJo (Tree Star Inc., Ashland, Oreg.).
# [3] = tested on: H3K4me3 indicator in HEK 293 cells; assay: H3K4me3 indicator experiment with BHB, FACS; type: cell-based; conditions: 24 hours before FACS; sodium salt
# Description: as §2
# [4] = tested on: DCX positive cells in the GCL; assay: Doublecortin positive fraction of the GCL (Example 2); type: in vivo, mouse; conditions: 10 mM/kg/day IP, two weeks, sodium salt
# Description: Perfusion, sectioning and, staining: For perfusion, cryosectioning and immunofluorescence staining, see Bjornsson et al. (2014). EdU (Life Sciences) in PBS/6% DMSO (10 mg/ml) injections (50 μg/g/day) were performed either with seven consecutive days followed by immediate perfusion or seven consecutive days of injection and then perfusion on the 30th day after the first injection. […] EdU was imaged with Click-iT EdU Alexa Flour 488 Imaging Kit (Invitrogen) as well as DAPI mounting with Vectamount (Vector Laboratories, Burlingame, Calif.). EdU quantification was done blinded to genotype. Labeled cells were counted in every sixth slice in the granule cell layer of the dentate gyrus and average number per slice was calculated for each brain. For immunofluorescence, primary antibodies included Doublecortin (Santa Cruz Biotechnology, 1:200 goat), trimethylated H3K4 (Cell Signaling, Danvers, Mass.; 1:500 rabbit), and Acetylated H3K9 and […] (Cell Signaling, 1:5000). Primary antibodies were incubated overnight at 4° C. in blocking buffer. Doublecortin area measurement: The DCX positive fraction of the GCL was measured by taking 4× pictures and using the Bezier tool on NS elements 2.0 software (Nikon) to measure the area of cells that expressed DCX as well as the entire granule cell layer.
# [5] = tested on: EdU+ cells in the GCL; assay: EdU incorporation in the GCL (proliferation / survival); type: in vivo, mouse; conditions: 10 mM/kg/day IP, two weeks, sodium salt
# Description: Animals and treatment: The mouse model, Kmt2d^+/βGeo, also known as (Mll2Gt^(RRt024)Byg), was generated by BayGenomics (University of California, CA) through insertion of a gene trapped vector, and was used on a fully backcrossed C57BL/6J background. The original unbalanced (6:1 fat to protein ration) diet was purchased from Bio-Sery (Ketogenic Diet AIN-76A-Modified High Fat Paste F3666; Flemington, N.J.), while the balanced diet (4:1 ratio) was also from Bio-Serv (F6689 Rodent Diet, Ketogenic, Fat: Paste). Mice were treated for two weeks on the diet, with the paste replaced several times a week. During MWM testing, given the length of testing (week), the mice were treated for three weeks.
# as §1, with “Urine from injections was drawn approximately 2 hours after injection and urine from mice on the ketogenic diet was taken in the early afternoon (unless otherwise stated in the text).” left out
# Perfusion, sectioning and, staining: For perfusion, cryosectioning and immunofluorescence staining, see Bjornsson et al. (2014). […] EdU quantification was done blinded to genotype. Labeled cells were counted in every sixth slice in the granule cell layer of the dentate gyrus and average number per slice was calculated for each brain. […]
# [6] = tested on: H3K4 trimethylation activity in Kmt2d^+/βGeo and Kmt2d^+/+ MEFs; assay: H3K4me3 indicator in murine embryonic fibroblasts (MEFs); type: cell-based, mouse; conditions: Kmt2d^+/βGeo cells treated with HDAC inhibitor
# Description: An H3K4 trimethylation reporter was also created. This reporter is based on the H3 tail on one end and the TBP associated factor III (TAFIII) homeodomain on the other end; the TAFIII homeodomain only identifies and binds to trimethylated K4 on H3. When the H3K4 site gets trimethylated, the TAFIII homeodomain can bind to the modified H3 tail and bring the two parts of the separated GFP in close proximity. The activity of the epigenetic modification system can be quantified through fluorescence.
# (§3) Epigenetic reporter alleles: Epigenetic reporter alleles were synthesized (OriGene, Rockville, Md.) using published sequences for component elements (Baird et al. (1999) Proc. Nail. Acad. Sci. 96:11241-6; Souslova et al. (2007) BMC Biotechnol. 7:37). Single nucleotide mutations were created using the QuickChange Lightening kit (Agilent Technologies Inc, Santa Clara, Calif.). For H4ac indicator, K5R, K8R, K12R, K16R and K20R (MUT indicator) were introduced. For H3K4me3 indicator, K4Q and D890A/W891A and M882A (three separate constructs) were introduced. For transient transfections, mouse embryonic fibroblasts (see below) were transfected with Fugene HD (Promega, Madison, Wis.), 48 hours prior to FACS. […] For drug stimulation, drug was added to the media 24 hours prior to FACS. For stable transfections in T293 (American Type Culture Collection) cells, 10 μg/ml of Blastocidin (Life Technologies, Carlsbad, Calif.) was added to the media for several weeks. For stable transfection in MEFs, the reporter was transferred to a ViraPower Lentiviral Expression System (Life Technologies, Carlsbad, Calif.). After selection with Blastocidin, the drug of interest was added 24 hours prior to FACS. SAHA, AR-42 and MS275 were purchased from Selleck (Selleck Chemicals, Houston, Tex.). […] FACS data were analyzed using FlowJo (Tree Star Inc, Ashland, Oreg.). A plasmid expressing HDAC3 was acquired from Addgene (Cambridge, Mass., plasmid 13819) and transfected into a stable cell line carrying the H4 acetyl reporter allele.
# [7] = tested on: H3K4 trimethylation and histone acetylation; conditions: Huang et al. (2011); cited from earlier work
# [8] = tested on: H4ac indicator (H4 acetylation machinery activity) in HEK293 cells; assay: H4ac (acetylation) indicator reporter assay, FACS; type: cell-based
# Description: Design of the indicator constructs. A genetically encoded histone reporter allele system has been developed which can be used to monitor activity of any histone maintenance machinery component in live cells. Previously, FRET based epigenetic activity systems have been created (Lin and Ting (2004) Angew Chem Int Ed Engl. 24;43 (22):2940-3; Lin et al. (2004) J. Am. Chem. Soc. 19;126(19):5982-3; U.S. Pat. No. 7,056,683). However, FRET-based assays need a complex technological setup which is not widely available and FRET-based assays have been much more difficult to introduce into transgenic mouse models. […] The particular construct design is based on a circularly permutated green fluorescent protein (GFP) that lacks fluorescence unless the two parts of GFP are brought into close proximity by external forces (Baird et al. (1999) Proc. Natl. Acad. Sci. U.S.A. 28;96(20):11241-6). The constructs are targeted to the nucleus through a nuclear localization signal (NLS). Mutants were also created that knocked out the activity of the indicator allele.
# The acetyl reporter protein quantifies the activity of the acetylation machinery (acetylation of H4 specifically at the 5th, 8th, 12th and 16th Lysine's) and comprises an H4 tail on one end (the target for acetylation) and a TBP associated factor II (TAFII) bromodomain on the other end of the reporter protein. The TAFII bromodomain only recognizes and binds to the acetylated H4 tail, resulting in reconstitution of GFP structure and function (i.e. fluorescence). Therefore, the reporter protein has no fluorescence unless it is acetylated by the acetylation system of the nucleus of the cell.
# as §3
structure (smiles),measurement,setting,value
"C[C@@H](O)CC(=O)[O-].[Na+] [BHB, (R)-(−)-3-hydroxybutyric acid sodium salt]",BHB level in the urine over a 12 hour day after one injection,[1]; 10 mM/kg at 9 AM,decreased to vehicle injected levels over a matter of hours
same,BHB level in the urine after injection,"[1]; 10 mM/kg, urine after 1.5 hours",most similar to treatment with a ketogenic diet
same,time of maximal drug activity,[1]; after injection,1.5 h
same,H4Ac indicator response to increased amounts in culture media,[2],dose-dependent increased activity; also recorded: dose-dependent response
same,H3K4me3 indicator response to increased amounts in culture media,[3],dose-dependent increased activity; also recorded: dose-dependent response
same,"DCX positive cells, treated Kmt2d^+/βGeo versus treated Kmt2d^+/+",[4],not to Kmt2d^+/+ BHB treated levels; also recorded: did not lead to a full recovery
same,"DCX positive cells, treated versus vehicle",[4]; Kmt2d^+/βGeo,increase in DCX expression; also recorded: significant increase in DCX positive cells
same,"EdU positive cells, treated Kmt2d^+/βGeo versus Kmt2d^+/+",[5],did not recover back; also recorded: did not lead to a full recovery
same,"EdU positive cells (proliferation), treated versus vehicle",[5]; Kmt2d^+/βGeo,significant increase in EdU expression; also recorded: significant increase in EdU positive cells
"Nc1ccccc1NC(=O)c1ccc(CNC(=O)OCc2cccnc2)cc1 [MS275, Pyridin-3-ylmethyl N-[[4-[(2-aminophenyl)carbamoyl]phenyl]methyl]carbamate]",H3K4 trimethylation activity,[6],enhanced; also recorded: improved
same,effect on H3K4 trimethylation and histone acetylation,[7],increase H3K4 trimethylation and histone acetylation
"O=C(CCCCCCC(=O)Nc1ccccc1)NO [SAHA, N′-hydroxy-N-phenyl-octanediamide]",cells easily discriminated from auto fluorescence (H4ac indicator),[8]; 1 μM of SAHA,5%
same,cells easily discriminated from auto fluorescence (H4ac indicator),[8]; 2.5 μM of SAHA,20%
same,cells easily discriminated from auto fluorescence (H4ac indicator),[8]; 7.5 μM of SAHA,40%
same,cells easily discriminated from auto fluorescence (H4ac indicator),[8]; 10 μM of SAHA,45%
same,fluorescence response of acetylation indicator to increasing amounts of drug,"[8]; FACS, culture systems",linear fluorescence response; also recorded: increasing fluorescence
same,acetylation of the indicator,[8]; FIG. 18A,increases acetylation of the indicator
same,H4ac indicator signal upon stimulation,[8]; HEK293 cells stably expressing the H4ac indicator,increased signal
